Reference: US7354734B2, “Fungal proteins and nucleic acids encoding same” (priority 2003, dated 2008)
Several values for one entry are separate records, joined by “and”; a condition that tells them apart may be missing. Equal values may be shown once. Read-outs that look alike come from different tables or passages of the source. Where a SMILES comes first, the peptide text is derived from it. [ ]: non-standard residue; d: D form. The star is where a group is joined. Sta = CC(C)C[C@H](N)[C@@H](O)CC(=O)O; Isovaleryl = CC(C)CC(=O)*

Tests used:
ruLAP1 = ruLAP1 (Trichophyton rubrum, UniProt Q5QHG5); assay type: biochemical; conditions: for effect of inhibitor on ruLAP1 activity: Leu-AMC 5 mM
Sequence of ruLAP1 (Q5QHG5 21-373): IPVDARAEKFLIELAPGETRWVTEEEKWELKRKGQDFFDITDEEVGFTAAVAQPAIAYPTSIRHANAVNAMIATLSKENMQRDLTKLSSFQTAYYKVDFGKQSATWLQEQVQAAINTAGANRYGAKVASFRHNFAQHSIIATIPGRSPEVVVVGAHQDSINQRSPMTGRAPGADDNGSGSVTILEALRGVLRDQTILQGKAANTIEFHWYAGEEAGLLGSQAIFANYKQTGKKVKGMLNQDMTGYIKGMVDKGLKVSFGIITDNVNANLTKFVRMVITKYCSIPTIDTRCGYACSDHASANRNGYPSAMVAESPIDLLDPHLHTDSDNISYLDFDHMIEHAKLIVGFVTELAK

ruLAP2 = ruLAP2 (Trichophyton rubrum, UniProt Q5QHG6); assay type: biochemical; conditions: for ruLAP2 activity as percentage of control reaction without any cation / ruLAP2 activity as percentage of control reaction without inhibitor: Leu-MCA substrate, 15 min pre-incubation; for effect of inhibitor on ruLAP2 activity: Leu-AMC 5 mM
Sequence of ruLAP2 (Q5QHG6 20-495): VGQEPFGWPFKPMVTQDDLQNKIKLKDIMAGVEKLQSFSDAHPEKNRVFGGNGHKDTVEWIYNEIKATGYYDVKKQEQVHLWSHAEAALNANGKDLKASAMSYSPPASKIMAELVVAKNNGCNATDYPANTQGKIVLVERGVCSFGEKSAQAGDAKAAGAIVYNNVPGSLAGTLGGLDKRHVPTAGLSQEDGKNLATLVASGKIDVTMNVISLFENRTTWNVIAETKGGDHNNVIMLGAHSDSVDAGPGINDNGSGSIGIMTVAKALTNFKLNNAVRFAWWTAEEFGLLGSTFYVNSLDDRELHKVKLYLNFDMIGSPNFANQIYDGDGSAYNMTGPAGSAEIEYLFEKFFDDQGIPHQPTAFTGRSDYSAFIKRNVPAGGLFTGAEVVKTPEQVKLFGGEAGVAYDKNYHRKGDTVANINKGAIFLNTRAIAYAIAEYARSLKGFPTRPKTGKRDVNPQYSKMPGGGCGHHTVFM

fuLAP1 = fuLAP1 (Aspergillus fumigatus, UniProt Q5VJG6); assay: biochemical; assay type: biochemical; conditions: for effect of inhibitor on fuLAP1 activity: Leu-AMC 5 mM
Sequence of fuLAP1 (Q5VJG6 16-388): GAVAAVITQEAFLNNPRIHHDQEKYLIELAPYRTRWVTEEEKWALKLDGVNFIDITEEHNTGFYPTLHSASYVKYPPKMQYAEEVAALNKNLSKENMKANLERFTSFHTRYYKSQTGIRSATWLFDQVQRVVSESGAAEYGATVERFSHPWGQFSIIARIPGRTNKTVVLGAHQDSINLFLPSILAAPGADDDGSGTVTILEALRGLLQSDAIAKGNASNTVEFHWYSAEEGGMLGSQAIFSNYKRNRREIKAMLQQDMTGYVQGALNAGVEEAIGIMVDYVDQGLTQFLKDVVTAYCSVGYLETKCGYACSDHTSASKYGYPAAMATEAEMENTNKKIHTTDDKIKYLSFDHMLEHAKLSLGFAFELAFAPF

fuLAP2 = assay type: biochemical, Aspergillus fumigatus; conditions: for fuLAP2 activity as percentage of control reaction without any cation / fuLAP2 activity as percentage of control reaction without inhibitor: Leu-MCA substrate, 15 min pre-incubation
[1] = target: T1, pkLAP (microsomal LAP from porcine kidney) (Sus scrofa, UniProt P15145); assay: Effect of inhibitors and metallic cations on LAP activity (Leu-AMC); assay type: biochemical
T1 construct: purchased Sigma; host or cells: porcine kidney
T1 sequence (P15145 1-963): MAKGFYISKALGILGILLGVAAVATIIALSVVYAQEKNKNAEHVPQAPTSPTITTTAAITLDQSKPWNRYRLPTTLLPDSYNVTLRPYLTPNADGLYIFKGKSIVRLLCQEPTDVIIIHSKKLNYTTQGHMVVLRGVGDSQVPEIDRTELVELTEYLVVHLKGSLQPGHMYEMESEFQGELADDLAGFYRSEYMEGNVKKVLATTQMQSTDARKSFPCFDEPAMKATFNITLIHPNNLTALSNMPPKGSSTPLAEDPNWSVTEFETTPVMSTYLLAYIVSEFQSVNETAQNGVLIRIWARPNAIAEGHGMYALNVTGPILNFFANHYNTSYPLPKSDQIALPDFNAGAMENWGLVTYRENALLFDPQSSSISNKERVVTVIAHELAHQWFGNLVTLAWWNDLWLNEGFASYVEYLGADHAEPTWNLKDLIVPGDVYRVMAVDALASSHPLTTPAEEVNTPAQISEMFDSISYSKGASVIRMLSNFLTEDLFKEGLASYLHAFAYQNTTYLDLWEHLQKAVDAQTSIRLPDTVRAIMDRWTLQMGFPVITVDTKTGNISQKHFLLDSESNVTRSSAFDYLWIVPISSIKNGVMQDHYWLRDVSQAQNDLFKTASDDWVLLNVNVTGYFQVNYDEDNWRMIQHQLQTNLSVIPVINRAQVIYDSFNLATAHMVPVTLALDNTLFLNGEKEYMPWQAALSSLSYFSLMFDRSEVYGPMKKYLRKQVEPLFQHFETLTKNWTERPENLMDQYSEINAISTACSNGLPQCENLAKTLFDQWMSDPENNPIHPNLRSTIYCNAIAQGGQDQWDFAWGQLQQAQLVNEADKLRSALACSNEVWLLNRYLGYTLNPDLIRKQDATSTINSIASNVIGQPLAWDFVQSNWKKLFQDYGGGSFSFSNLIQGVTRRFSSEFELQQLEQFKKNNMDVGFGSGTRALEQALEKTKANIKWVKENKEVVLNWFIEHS

[2] = Leu-AMC, cations 0.5 mM and 1 mM
[3] = cation salt 0.5 mM, Leu-MCA substrate, 15 min pre-incubation
[4] = cation salt 1 mM, Leu-MCA substrate, 15 min pre-incubation
[5] = inhibitor 100 μM, Leu-MCA substrate, 15 min pre-incubation
[6] = inhibitor 500 μM, Leu-MCA substrate, 15 min pre-incubation

In the case of [Cl-].[Cl-].[Co+2] [Co^++, CoCl2], the “ruLAP1 activity as percentage of control reaction without any cation” value (ruLAP1) was 210.2% and 202.1%, the “effect of divalent cation on ruLAP2 activity” value (ruLAP2; [2]) was “highly activated” and the “ruLAP2 activity as percentage of control reaction without any cation” value (ruLAP2; cation salt 0.5 mM) was 591.2%. For the same compound, the “ruLAP2 activity as percentage of control reaction without any cation” value (ruLAP2; cation salt 1 mM) was 789.7%, the “fuLAP1 activity as percentage of control reaction without any cation” value (fuLAP1; [3]) was 104.3% and the “fuLAP1 activity as percentage of control reaction without any cation” value (fuLAP1; [4]) was 96.5%. The “effect of divalent cation on fuLAP2 activity” value (fuLAP2; [2]) was “highly activated”, the “fuLAP2 activity as percentage of control reaction without any cation” value (fuLAP2; cation salt 0.5 mM) was 378.0% and the “fuLAP2 activity as percentage of control reaction without any cation” value (fuLAP2; cation salt 1 mM) was 662.7%. The “pkLAP activity as percentage of control reaction without any cation” value [1, 3] was 876.1% and the “pkLAP activity as percentage of control reaction without any cation” value [1, 4] was 899.8%.

In the case of CC(C)C[C@H](NC(=O)[C@H]1O[C@@H]1C(=O)O)C(=O)NCCCCN=C(N)N [E 64], the “ruLAP1 activity as percentage of control reaction without inhibitor” value (ruLAP1; 100 µM) was 103%, the “ruLAP2 activity as percentage of control reaction without inhibitor” value (ruLAP2; inhibitor 100 μM) was 34% and the “fuLAP1 activity as percentage of control reaction without inhibitor” value (fuLAP1; [5]) was 190%. The “fuLAP2 activity as percentage of control reaction without inhibitor” value (fuLAP2; inhibitor 100 μM) was 71% and the “pkLAP activity as percentage of control reaction without inhibitor” value [1, 5] was 93%.

For N=C(N)c1ccccc1 [benzamidine], the “effect of inhibitor on ruLAP1 activity” value (ruLAP1) was “no clear inhibitory effects”, the “effect of inhibitor on ruLAP2 activity” value (ruLAP2) was “no clear inhibitory effects” and the “effect of inhibitor on fuLAP1 activity” value (fuLAP1) was “no clear inhibitory effects”. The remaining activity at 40 µM (fuLAP1; inhibitor 40 μM, Leu-MCA substrate, 15 min pre-incubation, read-out: fuLAP1 activity as percentage of control reaction without inhibitor) was 77%, the “effect of inhibitor on fuLAP2 activity” value (fuLAP2; Leu-AMC 5 mM) was “no clear inhibitory effects” and the “fuLAP2 activity as percentage of control reaction without inhibitor” value (fuLAP2; inhibitor 40 μM) was 91%. For the same compound, the “effect of inhibitor on pkLAP activity” value ([1]; Leu-AMC 5 mM) was “no clear inhibitory effects” and the remaining activity at 40 µM ([1]; inhibitor 40 μM, Leu-MCA substrate, 15 min pre-incubation, read-out: pkLAP activity as percentage of control reaction without inhibitor) was 75%.

For O=C(O)c1cc[c]([Hg][Cl])cc1 [p-chloromercuribenzoate, p-chloromercuribenzoic acid], the “ruLAP1 activity as percentage of control reaction without inhibitor” value (ruLAP1; 500 µM) was 32%, the “effect of inhibitor on ruLAP2 activity” value (ruLAP2) was “blunted the activity” and the “ruLAP2 activity as percentage of control reaction without inhibitor” value (ruLAP2; inhibitor 500 μM) was 21%. The “fuLAP1 activity as percentage of control reaction without inhibitor” value (fuLAP1; [6]) was 90%, the “fuLAP2 activity as percentage of control reaction without inhibitor” value (fuLAP2; inhibitor 500 μM) was 96% and the “pkLAP activity as percentage of control reaction without inhibitor” value [1, 6] was 59%.

For CC(C)C[C@H](NC(=O)[C@H]1O[C@@H]1C(=O)O)C(=O)NCCCCN=C(N)N (relative stereo) [E64, L-trans-epoxysuccinyl-leu-4-guanidinobutylamide], the “effect of inhibitor on ruLAP2 activity” value (ruLAP2) was “blunted the activity”.

With CC(C)CC(=O)N[C@H](C(=O)N[C@H](C(=O)N[C@@H](CC(C)C)[C@@H](O)CC(=O)N[C@@H](C)C(=O)N[C@@H](CC(C)C)[C@@H](O)CC(=O)O)C(C)C)C(C)C [pepstatin, pepstatin A] (Isovaleryl-VV[Sta]A[Sta]-OH) the “effect of inhibitor on ruLAP1 activity” value (ruLAP1) was “some sensitivity”, the “effect of inhibitor on fuLAP1 activity” value (fuLAP1) was “some sensitivity” and the remaining activity at 100 µM (fuLAP1; inhibitor 100 μM, Leu-MCA substrate, 15 min pre-incubation, read-out: fuLAP1 activity as percentage of control reaction without inhibitor) was 14%. For the same compound, the “fuLAP2 activity as percentage of control reaction without inhibitor” value (fuLAP2; inhibitor 100 μM) was 73% and the remaining activity at 100 µM ([1]; inhibitor 100 μM, Leu-MCA substrate, 15 min pre-incubation, read-out: pkLAP activity as percentage of control reaction without inhibitor) was 64%.

With [Cl][Cu][Cl] [Cu^++, CuCl2] the “ruLAP2 activity as percentage of control reaction without any cation” value (ruLAP2; cation salt 0.5 mM) was 50.9%, the “ruLAP2 activity as percentage of control reaction without any cation” value (ruLAP2; cation salt 1 mM) was 34.7% and the “fuLAP1 activity as percentage of control reaction without any cation” value (fuLAP1; [3]) was 25.8%. For the same compound, the “fuLAP1 activity as percentage of control reaction without any cation” value (fuLAP1; [4]) was 17.0%, the “fuLAP2 activity as percentage of control reaction without any cation” value (fuLAP2; cation salt 0.5 mM) was 68.9% and the “fuLAP2 activity as percentage of control reaction without any cation” value (fuLAP2; cation salt 1 mM) was 73.6%. The “effect of divalent cation on pkLAP activity” value [1, 2] was “highly activated”, the “pkLAP activity as percentage of control reaction without any cation” value [1, 3] was 1422.0% and the “pkLAP activity as percentage of control reaction without any cation” value [1, 4] was 1092.4%.
